Reference: patent US11578080B2, “Thienopyrimidones” (Boehringer Ingelheim International GmbH, priority 2019, dated 2023)
pIC50: −log10 of the molar value.

How the values were obtained:
[1] = Assay B: Microsomal clearance; format: in vitro ADME, human; settings: pooled liver microsomes, 1 μM test compound, 37° C.
Procedure: Assay B: Microsomal Clearance:
The metabolic degradation of the test compound is assayed at 37° C. with pooled liver microsomes. The final incubation volume of 100 μl per time point contains TRIS buffer pH 7.6 at RT (0.1 M), magnesium chloride (5 mM), microsomal protein (1 mg/ml) and the test compound at a final concentration of 1 μM.
Following a short preincubation period at 37° C., the reactions are initiated by addition of beta-nicotinamide adenine dinucleotide phosphate, reduced form (NADPH, 1 mM) and terminated by transferring an aliquot into solvent after different time points (0, 5, 15, 30, 60 min). Additionally, the NADPH-independent degradation is monitored in incubations without NADPH, terminated at the last time point. The [%] remaining test compound after NADPH independent incubation is reflected by the parameter c(control) (metabolic stability). The quenched incubations are pelleted by centrifugation (10000 g, 5 min).
An aliquot of the supernatant is assayed by LC-MS/MS for the amount of parent compound. The half-life (t½ INVITRO) is determined by the slope of the semilogarithmic plot of the concentration-time profile.
The intrinsic clearance (CL_[…]) is calculated by considering the amount of protein in the incubation: CL_[…] [μl/min/mg protein]=(Ln 2/(half-life [min]*protein content [mg/ml]))*1000 CL_[…]_INVIVO [ml/min/kg]=(CL_[…] [μL/min/mg protein]×MPPGL [mg protein/g liver]×liver factor [g/kg body weight])/1000 Qh [%]=CL [ml/min/kg]/hepatic blood flow [ml/min/kg])
(§1) Hepatocellularity, human: 120×10e6 cells/g liver
(§2) Liver factor, human: 25.7 g/kg bodyweight
(§3) Blood flow, human: 21 ml/(min×kg)

[2] = Assay C: Hepatocyte clearance; format: in vitro ADME, human; settings: hepatocyte suspension, 1 μM test compound
Procedure: Assay C: Hepatocyte Clearance
The metabolic degradation of the test compound is assayed in a hepatocyte suspension. Hepatocytes (cryopreserved) are incubated in. Dulbecco's modified eagle medium (supplemented with 3.5 μg glucagon/500 mL, 2.5 mg insulin/500 mL and 3.75 mg/500 mL hydrocortison) containing 5% or 50% species serum.
Following a 30 min preincubation in an incubator (37° C., 10% CO2) 5 μl of test compound solution (80 μM; from 2 mM in DMSO stock solution diluted 1:25 with medium) are added into 395 μl hepatocyte suspension (cell density in the range 0.25-5 Mio cells/mL depending on the species, typically 1 Mio cells/mL; final concentration of test compound 1 μM, final DMSO concentration 0.05%).
The cells are incubated for six hours (incubator, orbital shaker) and samples (25 μl) are taken at 0, 0.5, 1, 2, 4 and 6 hours. Samples are transferred into acetonitrile and pelleted by centrifugation (5 min). The supernatant is transferred to a new 96-deepwell plate, evaporated under nitrogen and resuspended.
Decline of parent compound is analyzed by HPLC-MS/MS
CLint is calculated as follows CL_[…]=Dose/AUC=(C0/CD)/(AUD+clast/k)×1000/60. CO: initial concentration in the incubation [μM], CD: cell density of vital cells [10e6 cells/mL], AUD: area under the data [μM×h], clast: concentration of last data point [μM], k: slope of the regression line for parent decline [h-1].
The calculated in vitro hepatic intrinsic clearance can be scaled up to the intrinsic in vivo hepatic Clearance and used to predict hepatic in vivo blood clearance (CL) by the use of a liver model (well stirred model). CL_[…]_INVIVO [ml/min/kg]=(CL_[…] [μL/min/10e6 cells]×hepatocellularity [10e6 cells/g liver]×liver factor [g/kg body weight])/1000 CL [ml/min/kg]=CL_[…]_INVIVO [ml/min/kg]×hepatic blood flow [ml/min/kg]/(CL_[…]_INVIVO [ml/min/kg]+hepatic blood flow [ml/min/kg]) Qh [%]=CL [ml/min/kg]/hepatic blood flow [ml/min/kg])
as §1, §2, §3

[3] = target: human TRPA1 ion channel (Homo sapiens (Human), UniProt O75762); test: Assay A: TRPA1 assay (FLIPR calcium, AITC agonism, HEK293 over-expressing human TRPA1); format: cell-based; settings: HEK293 over-expressing human TRPA1, AITC 10 μM, FLIPRtetra; read-out: hTRPA1 IC50
human TRPA1 ion channel, sequence (O75762 whole entry): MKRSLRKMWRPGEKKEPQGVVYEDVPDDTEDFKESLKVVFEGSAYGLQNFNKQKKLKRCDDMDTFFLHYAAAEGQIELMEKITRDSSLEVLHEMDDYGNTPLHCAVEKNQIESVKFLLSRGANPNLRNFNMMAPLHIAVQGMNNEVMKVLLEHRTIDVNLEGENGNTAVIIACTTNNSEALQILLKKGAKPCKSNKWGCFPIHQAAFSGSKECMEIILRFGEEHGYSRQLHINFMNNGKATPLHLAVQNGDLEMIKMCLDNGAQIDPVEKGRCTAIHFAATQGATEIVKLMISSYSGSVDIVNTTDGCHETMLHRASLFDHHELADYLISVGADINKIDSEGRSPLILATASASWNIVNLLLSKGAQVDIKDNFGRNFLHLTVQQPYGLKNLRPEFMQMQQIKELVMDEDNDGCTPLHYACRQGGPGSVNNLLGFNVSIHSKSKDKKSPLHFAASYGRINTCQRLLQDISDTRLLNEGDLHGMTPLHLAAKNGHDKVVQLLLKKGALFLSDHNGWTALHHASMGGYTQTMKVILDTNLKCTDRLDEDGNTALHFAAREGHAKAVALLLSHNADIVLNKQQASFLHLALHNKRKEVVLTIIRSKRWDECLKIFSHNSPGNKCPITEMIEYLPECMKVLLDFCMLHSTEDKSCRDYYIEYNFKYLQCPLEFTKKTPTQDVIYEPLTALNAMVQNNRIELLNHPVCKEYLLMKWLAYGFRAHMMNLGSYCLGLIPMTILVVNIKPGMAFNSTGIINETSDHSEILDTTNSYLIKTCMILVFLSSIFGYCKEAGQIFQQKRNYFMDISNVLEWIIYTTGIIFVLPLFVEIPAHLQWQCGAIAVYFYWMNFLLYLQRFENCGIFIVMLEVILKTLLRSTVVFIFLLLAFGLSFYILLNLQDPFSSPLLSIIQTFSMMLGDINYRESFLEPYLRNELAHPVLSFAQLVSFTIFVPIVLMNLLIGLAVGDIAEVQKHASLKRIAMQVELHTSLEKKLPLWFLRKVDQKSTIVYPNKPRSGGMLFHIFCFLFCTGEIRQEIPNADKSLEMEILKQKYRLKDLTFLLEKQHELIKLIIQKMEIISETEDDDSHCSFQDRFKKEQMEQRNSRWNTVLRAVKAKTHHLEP
Procedure: A human HEK293 cell line over-expressing the human TRPA1 ion channel (Perkin Elmer, Product No. AX-004-PCL) was used as a test system for compound efficacy and potency. Compound activity was determined by measuring the effect of compounds on intracellular calcium concentration induced by AITC (Allylisothiocyanat) agonism in a FLIPRtetra system (Molecular Devices).
The cells were obtained as frozen cells in cryo-vials and stored until use at −150° C. Cells were grown in culture medium (MEM/EBSS medium with 10% FCS and 0.4 mg/ML Geneticin). […] For sub-culturing cells were detached from flasks by Versene. At the day before the assay, cells were detached, washed twice with medium (MEM/EBSS medium with 10% FCS) and 20000 cells in 20 μl/well were seeded to Poly D-Lysin biocoated 384-well plates (black, clear bottom, Cat. 356697) from Corning. Plates were incubated for 24 hours at 37° C./5% CO2 before use in the assay.
The test compounds were dissolved in 100% DMSO at a concentration of 10 mM and in a first step diluted in DMSO to a concentration of 5 mM, followed by serial dilution steps in 100% DMSO. Dilution factor and number of dilution steps may vary according to needs. Typically 8 different concentrations by 1:5 dilutions were prepared, further intermediate dilutions (1:20) of the substances were carried out with HBSS/HEPES buffer (1×HEPES, Cat. 14065 from Gibco, 20 mM HEPES, Cat. 83264 from SIGMA, 0.1% BSA Cat. 11926 from Invitrogen, pH 7,4
At the assay day cells were washed 3× with assay puffer, 20 μL buffer remained in the wells after washing. 10 μL Ca6 kit (Cat. R8191 MolecularDevices) loading buffer in HBSS/HEPES was added to the cells and the plates were incubated with lid for 120 minutes at […]. 10 μL of compound or controls in HBSS/HEPES buffer/5% DMSO from the intermediate dilution plate were carefully added to the wells. […] Finally 10 μL of the agonist AITC 50 μM dissolved in HBSS/HEPES buffer/0.05% DMSO (final concentration 10 μM) was added to the wells followed by an additional read on the FLIPRtetra device for 10 minutes. The area under the signal curve (AUC) after AITC addition was used for IC50/% inhibition calculations
Data Evaluation and Calculation:
Each assay microtiter plate contained wells with vehicle (1% DMSO) controls instead of compound as controls for AITC induced luminescence (100% CTL; high controls) and wells with vehicle controls without AITC as controls for non-specific changes in luminescence (0% CTL; low controls).
The analysis of the data was performed by the calculation of the area under signal curve of the individual wells. Based on this values the % value for the measurement of each substance concentration was calculated (AUC(sample)−AUC(low))*100/(AUC(high)−AUC(low)) using MegaLab software (in house development). The IC50 values were calculated from the % control values using MegaLab software. Calculation: [y=(a−d)/(1+(x/c)^b)+d], a=low value, d=high value; x=cone M; c=IC50 M; b=hill; y=% ctrl

| Compound | human LM [% Qh] [1] [% Qh] | human Hepatocytes [% Qh] [2] [% Qh] | pIC50 [3] |
| --- | --- | --- | --- |
| Cc1c(C(N)=O)sc2ncn(Cc3nnn(C[C@H](O)c4ccc(Cl)cc4)n3)c(=O)c12 [Example 1, 3-({2-[(2R)-2-(4-chlorophenyl)-2-hydroxyethyl]-2H-1,2,3,4-tetrazol-5-yl}methyl)-5-methyl-4-oxo-3H,4H-thieno[2,3-d]pyrimidine-6-carboxamide] | <23 | 12 | 7.96 |
| Cc1c(C(N)=O)sc2ncn(Cc3nnn(C[C@H](O)c4ccc(F)c(F)c4)n3)c(=O)c12 [Example 5] | <23 |  | 7.13 |
| CN1CCc2c(sc3ncn(Cc4nnn(C[C@H](O)c5ccc(Cl)cc5)n4)c(=O)c23)C1=O [Example 7] | 36 | 26 | 7.80 |
| Cc1c(C(N)=O)sc2ncn(Cc3nnn(C[C@H](O)c4cc5ccc(Cl)cc5o4)n3)c(=O)c12 [Example 8] | 43 | 36 | 7.82 |
| Cc1ccc([C@@H](O)Cn2nnc(Cn3cnc4sc(C(N)=O)c(C)c4c3=O)n2)cc1 [Example 9] | <23 | 16 | 7.68 |
| Cc1c(C(N)=O)sc2ncn(Cc3nnn(C[C@H](O)c4ccc5c(c4)OCO5)n3)c(=O)c12 [Example 10] | <23 | 14 | 7.55 |
| Cc1c(C(N)=O)sc2ncn(Cc3nnn(C[C@H](O)c4cc5cc(F)ccc5o4)n3)c(=O)c12 [Example 11] | <23 | 28 | 7.60 |
| Cc1c(C(N)=O)sc2ncn(Cc3nnn(C[C@H](O)c4cc5ccc(F)cc5o4)n3)c(=O)c12 [Example 12] | <23 | 31 | 7.77 |
| CNC(=O)c1sc2ncn(Cc3nnn(C[C@H](O)c4ccc(Cl)cc4)n3)c(=O)c2c1C [Example 13] | <23 | 9 | 7.70 |
| CNC(=O)c1sc2ncn(Cc3nnn(C[C@H](O)c4ccc5c(c4)OCO5)n3)c(=O)c2c1C [Example 14] | <23 | 13 | 7.12 |
| CNC(=O)c1sc2ncn(Cc3nnn(C[C@H](O)c4ccc(C)cc4)n3)c(=O)c2c1C [Example 15] | <23 | 18 | 7.42 |
| CNC(=O)c1sc2ncn(Cc3nnn(C[C@H](O)c4ccc(Cl)s4)n3)c(=O)c2c1C [Example 16] | <23 | 17 | 7.43 |
| O=C1NCCc2c1sc1ncn(Cc3nnn(C[C@H](O)c4cc5cc(F)ccc5o4)n3)c(=O)c21 [Example 19] | <23 | 26 | 7.51 |
| N#Cc1ccc([C@@H](O)Cn2nnc(Cn3cnc4sc5c(c4c3=O)CCNC5=O)n2)s1 [Example 21] | 27 | 5 | 7.10 |

Continued, values first:

| human LM [% Qh] [1] [% Qh] | human Hepatocytes [% Qh] [2] [% Qh] | pIC50 [3] | Compound |
| --- | --- | --- | --- |
| <23 | 13 | 7.92 | Cc1c(C(N)=O)sc2ncn(Cc3nnn(C[C@H](O)c4ccc(Br)cc4)n3)c(=O)c12 [Example 2] |
| <23 | 40 | 7.92 | Cc1c(C(N)=O)sc2ncn(Cc3nnn(C[C@H](O)c4cc5cc(Cl)ccc5o4)n3)c(=O)c12 [Example 3] |
| <23 | 7 | 7.92 | Cc1c(C(N)=O)sc2ncn(Cc3nnn(C[C@H](O)c4ccc(Cl)s4)n3)c(=O)c12 [Example 4] |
| <23 | 22 | 7.85 | O=C1NCCc2c1sc1ncn(Cc3nnn(C[C@H](O)c4ccc(Cl)s4)n3)c(=O)c21 [Example 17] |
| 32 | 48 | 7.85 | O=C1NCCc2c1sc1ncn(Cc3nnn(C[C@H](O)c4cc5cc(Cl)ccc5o4)n3)c(=O)c21 [Example 18] |
| <23 | 28 | 7.85 | Cc1ccc([C@@H](O)Cn2nnc(Cn3cnc4sc5c(c4c3=O)CCNC5=O)n2)cc1 [Example 20] |
| 35 | 44 | 8.15 | Cc1c(C(N)=O)sc2ncn(Cc3nnn(C[C@H](O)c4cc5ccccc5s4)n3)c(=O)c12 [Example 22] |
| <23 | 12 | 8.22 | NC(=O)c1sc2ncn(Cc3nnn(C[C@H](O)c4ccc(Cl)cc4)n3)c(=O)c2c1Cl [Example 23] |
